Source: patent US7314870B2, “Compounds, their preparation and use” (Neurosearch A/S, priority 2001, dated 2008)
Counter-ions that a name gives are not always drawn. Like-named read-outs stand apart in the source and are kept apart here.

Experiments:
[1] = molecular target: T1, serotonin transporter (Rattus norvegicus, UniProt P31652); assay: In vitro inhibition of 3H-5-hydroxytryptamine uptake in cortical synaptosomes; assay type: biochemical; settings: 1 nM 3H-5-HT, 30 minutes at 37° C
T1 construct: Cerebral cortices from male Wistar rats (150-200 g) are homogenized; from tissue; host or cells: rat cerebral cortex synaptosomes (P2 pellet)
T1 sequence (P31652 whole entry): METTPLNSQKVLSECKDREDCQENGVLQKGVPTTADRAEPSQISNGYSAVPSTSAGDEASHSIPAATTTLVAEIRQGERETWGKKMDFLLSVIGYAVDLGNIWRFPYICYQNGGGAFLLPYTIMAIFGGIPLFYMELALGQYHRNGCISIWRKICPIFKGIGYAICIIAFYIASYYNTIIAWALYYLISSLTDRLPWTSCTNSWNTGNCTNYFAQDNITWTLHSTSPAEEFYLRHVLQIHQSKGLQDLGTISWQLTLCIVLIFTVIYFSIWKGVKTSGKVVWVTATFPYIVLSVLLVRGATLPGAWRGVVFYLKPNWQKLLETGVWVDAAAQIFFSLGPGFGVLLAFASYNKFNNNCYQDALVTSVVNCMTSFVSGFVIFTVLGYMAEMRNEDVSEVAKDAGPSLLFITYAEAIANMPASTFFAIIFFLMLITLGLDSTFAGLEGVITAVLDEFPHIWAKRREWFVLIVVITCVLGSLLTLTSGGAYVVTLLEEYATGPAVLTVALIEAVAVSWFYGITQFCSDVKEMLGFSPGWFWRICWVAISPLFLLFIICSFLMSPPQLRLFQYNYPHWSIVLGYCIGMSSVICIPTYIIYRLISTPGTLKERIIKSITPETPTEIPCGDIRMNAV
Protocol: In Vitro Inhibition of ^3H-5-Hydroxytyptamine Uptake in Cortical Synaptosomes
Serotonin transporters/uptake sites on nerve terminals presumably function to terminate neuronal signaling by removing serotonin from the synaptic cleft. The activity of the serotonin transporter integral protein can be measured in vitro by synaptosomal uptake of ^3H-5-hydroxytryptamine (5-HT, serotonin).
Preparations are performed at 0-4° C. Cerebral cortices from male Wistar rats (150-200 g) are homogenized for 5-10 seconds in 100 volumes of ice-cold 0.32 M sucrose containing 1 mM pargyline, using a motor driven teflon pestle in a glass homogenizing vessel. Monoamine oxidase activity is inhibited in the presence of pargyline.
The homogenate is subjected to centrifugation at 1000×g for 10 minutes. The resulting supernatant is then centrifuged at 27,000×g for 50 minutes and the supernatant is discarded. […]
Aliquots of 4.0 ml tissue suspension are added to 100 μl of test solution and 100 μl of ^3H-5-HT (1 nM, final concentration), mixed and incubated for 30 minutes at 37° C. Non-specific uptake is determined using Citalopram (1 μM, final concentration, available from Lundbeck, Denmark). […]
The amount of radioactivity on the filters is determined by conventional liquid scintillation counting. Specific uptake is calculated as the difference between total uptake and non-specific uptake. […]

[2] = molecular target: T2, α7-subtype of nicotinic receptors (Rattus norvegicus, UniProt Q05941); assay: In vitro inhibition of 3H-α-bungarotoxine binding in rat brain
T2 construct: Cerebral cortices from male Wistar rats (150-250 g) are homogenised; from tissue; host or cells: rat cerebral cortex membrane homogenate
T2 sequence (Q05941 23-502): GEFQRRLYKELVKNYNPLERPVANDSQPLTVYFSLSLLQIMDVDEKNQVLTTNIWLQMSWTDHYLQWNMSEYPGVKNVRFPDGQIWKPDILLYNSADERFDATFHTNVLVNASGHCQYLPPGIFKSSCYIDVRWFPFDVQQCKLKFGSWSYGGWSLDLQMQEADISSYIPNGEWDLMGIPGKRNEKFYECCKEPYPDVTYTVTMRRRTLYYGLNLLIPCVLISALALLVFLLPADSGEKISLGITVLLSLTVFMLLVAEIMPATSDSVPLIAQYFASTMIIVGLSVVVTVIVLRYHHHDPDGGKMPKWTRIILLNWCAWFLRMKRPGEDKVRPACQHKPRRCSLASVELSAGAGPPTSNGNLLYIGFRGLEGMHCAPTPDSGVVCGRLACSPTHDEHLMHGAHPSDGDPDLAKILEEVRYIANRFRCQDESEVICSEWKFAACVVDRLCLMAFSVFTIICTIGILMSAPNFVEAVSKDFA

| Structure (SMILES) | IC50 [1] | IC50 [2] | IC50 ([2]; rat cerebral cortex homogenate, 2 nM 3H-α-bungarotoxine, 2 hours at 37° C, read-out: Inhibition of 3H-α-Bungarotoxine Binding IC50) |
| --- | --- | --- | --- |
| O=S1(=O)C(C2=CC3CCC(C2)N3)=Cc2ccccc21 (racemic) [Compound 1, (±)-3-(2-Benzo[b]thiophenyl-1,1-dioxide)-8-H-8-azabicyclo[3.2.1]oct-2-ene fumaric acid salt] | 190 nM | – | – |
| CN1C2C=C(C3=Cc4ccccc4S3(=O)=O)CC1CC2 (racemic) [Compound 2, (±)-3-2-Benzo[b]thiophenyl-1,1-dioxide)-8-methyl-8-azabicyclo[3.2.1]oct-2-ene fumaric acid salt] | 660 nM | 18 nM | – |
| C=CCN1C2C=C(C3=Cc4ccccc4S3(=O)=O)CC1CC2 (racemic) [Compound 3, (±)-3-(2-Benzo[b]thiophenyl-1,1-dioxide)-8-allyl-8-azabicyclo[3.2.1]oct-2-ene] | – | – | 850 nM |
